Source: patent publication US12077503B2, “Substituted cyclic amides and their use as herbicides” (FMC CORPORATION, priority 2015, dated 2024)

How the values were obtained:
Assay in all cases: Test C preemergence
Format in all cases: in vivo
[1] = system: waterhemp (common waterhemp, Amaranthus rudis); details: for Plant response rating, Waterhemp: scale 0 to 100, 0 no effect, 100 complete control
Outline: (§1)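 Greenhouse test: seeds in a loam and sand blend treated preemergence, or seedlings at the 1- to 4-leaf stage (2 to 18 cm) in a peat, vermiculite and limestone mix treated postemergence, with test chemicals in a surfactant-containing non-phytotoxic solvent. Scored by eye at 13 to 15 d relative to controls, 0 (no effect) to 100 (complete control).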

[2] = system: oilseed rape (Brassica napus); details: for Plant response rating, Oilseed Rape: scale 0 to 100, 0 no effect, 100 complete control
Outline: as §1

soybean (Glycine max) = details: for Plant response rating, Soybean: scale 0 to 100, 0 no effect, 100 complete control
Outline: as §1

[3] = system: blackgrass (Alopecurus myosuroides); details: for Plant response rating, Blackgrass: scale 0 to 100, 0 no effect, 100 complete control
Outline: as §1

[4] = system: wheat (winter wheat, Triticum aestivum); details: for Plant response rating, Wheat: scale 0 to 100, 0 no effect, 100 complete control
Outline: as §1

[5] = system: nutsedge, yellow (yellow nutsedge, Cyperus esculentus); details: for Plant response rating, Nutsedge, Yellow: scale 0 to 100, 0 no effect, 100 complete control
Outline: as §1

[6] = system: ryegrass, Italian (Italian ryegrass, Lolium multiflorum); details: for Plant response rating, Ryegrass, Italian: scale 0 to 100, 0 no effect, 100 complete control
Outline: as §1

[7] = system: morningglory (Ipomoea coccinea); details: for Plant response rating, Morningglory: scale 0 to 100, 0 no effect, 100 complete control
Outline: as §1

[8] = system: Galium (catchweed bedstraw, Galium aparine); details: for Plant response rating, Galium: scale 0 to 100, 0 no effect, 100 complete control
Outline: as §1

corn (Zea mays) = details: for Plant response rating, Corn: scale 0 to 100, 0 no effect, 100 complete control
Outline: as §1

[9] = system: foxtail, giant (giant foxtail, Setaria faberii); details: for Plant response rating, Foxtail, Giant: scale 0 to 100, 0 no effect, 100 complete control
Outline: as §1

[10] = system: pigweed (Amaranthus retroflexus); details: for Plant response rating, Pigweed: scale 0 to 100, 0 no effect, 100 complete control
Outline: as §1

[11] = system: velvetleaf (Abutilon theophrasti); details: for Plant response rating, Velvetleaf: scale 0 to 100, 0 no effect, 100 complete control
Outline: as §1

[12] = system: crabgrass, large (large crabgrass, Digitaria sanguinalis); details: for Plant response rating, Crabgrass, Large: scale 0 to 100, 0 no effect, 100 complete control
Outline: as §1

[13] = system: johnsongrass (Sorghum halepense); details: for Plant response rating, Johnsongrass: scale 0 to 100, 0 no effect, 100 complete control
Outline: as §1

[14] = system: ragweed (common ragweed, Ambrosia elatior); details: for Plant response rating, Ragweed: scale 0 to 100, 0 no effect, 100 complete control
Outline: as §1

[15] = system: barnyardgrass (Echinochloa crus-galli); details: for Plant response rating, Barnyardgrass: scale 0 to 100, 0 no effect, 100 complete control
Outline: as §1

[16] = 31 g ai/ha, 0 is no effect, 100 is complete control

O=C1NCC(c2cccc(OC(F)(F)C(F)F)c2)C1C(=O)Nc1ccc(F)c(F)c1F (racemic) [Compound 698]
Plant response rating (scale of 0 to 100), Waterhemp [1, 16]: 85
Plant response rating, Waterhemp ([1]; 62 g ai/ha): 85
Plant response rating, Waterhemp ([1]; 125 g ai/ha): 85
Plant response rating, Waterhemp ([1]; 250 g ai/ha): 90
Plant response rating (scale of 0 to 100), Oilseed Rape [2, 16]: 0
Plant response rating, Oilseed Rape ([2]; 62 g ai/ha): 30
Plant response rating, Oilseed Rape ([2]; 125 g ai/ha): 80
Plant response rating, Oilseed Rape ([2]; 250 g ai/ha): 85
Plant response rating (scale of 0 to 100), Soybean (soybean (Glycine max); [16]): 35
Plant response rating, Soybean (soybean (Glycine max); 62 g ai/ha): 0
Plant response rating, Soybean (soybean (Glycine max); 125 g ai/ha): 0
Plant response rating, Soybean (soybean (Glycine max); 250 g ai/ha): 0
Plant response rating (scale of 0 to 100), Blackgrass [3, 16]: 0
Plant response rating, Blackgrass ([3]; 62 g ai/ha): 0
Plant response rating, Blackgrass ([3]; 125 g ai/ha): 50
Plant response rating, Blackgrass ([3]; 250 g ai/ha): 70
Plant response rating (scale of 0 to 100), Wheat [4, 16]: 0
Plant response rating, Wheat ([4]; 62 g ai/ha): 0
Plant response rating, Wheat ([4]; 125 g ai/ha): 0
Plant response rating, Wheat ([4]; 250 g ai/ha): 30
Plant response rating (scale of 0 to 100), Nutsedge, Yellow [5, 16]: 0
Plant response rating, Nutsedge, Yellow ([5]; 62 g ai/ha): 0
Plant response rating, Nutsedge, Yellow ([5]; 125 g ai/ha): 0
Plant response rating, Nutsedge, Yellow ([5]; 250 g ai/ha): 0
Plant response rating (scale of 0 to 100), Ryegrass, Italian [6, 16]: 0
Plant response rating, Ryegrass, Italian ([6]; 62 g ai/ha): 0
Plant response rating, Ryegrass, Italian ([6]; 125 g ai/ha): 0
Plant response rating, Ryegrass, Italian ([6]; 250 g ai/ha): 30
Plant response rating (scale of 0 to 100), Morningglory [7, 16]: 0
Plant response rating, Morningglory ([7]; 62 g ai/ha): 0
Plant response rating, Morningglory ([7]; 125 g ai/ha): 20
Plant response rating, Morningglory ([7]; 250 g ai/ha): 25
Plant response rating (scale of 0 to 100), Galium [8, 16]: 100
Plant response rating, Galium ([8]; 62 g ai/ha): 90
Plant response rating, Galium ([8]; 125 g ai/ha): 100
Plant response rating, Galium ([8]; 250 g ai/ha): 90
Plant response rating (scale of 0 to 100), Corn (corn (Zea mays); [16]): 40
Plant response rating, Corn (corn (Zea mays); 62 g ai/ha): 70
Plant response rating, Corn (corn (Zea mays); 125 g ai/ha): 80
Plant response rating, Corn (corn (Zea mays); 250 g ai/ha): 80
Plant response rating (scale of 0 to 100), Foxtail, Giant [9, 16]: 85
Plant response rating, Foxtail, Giant ([9]; 62 g ai/ha): 90
Plant response rating, Foxtail, Giant ([9]; 125 g ai/ha): 85
Plant response rating, Foxtail, Giant ([9]; 250 g ai/ha): 90
Plant response rating (scale of 0 to 100), Pigweed [10, 16]: 75
Plant response rating, Pigweed ([10]; 62 g ai/ha): 85
Plant response rating, Pigweed ([10]; 125 g ai/ha): 90
Plant response rating, Pigweed ([10]; 250 g ai/ha): 90
Plant response rating (scale of 0 to 100), Velvetleaf [11, 16]: 25
Plant response rating, Velvetleaf ([11]; 62 g ai/ha): 40
Plant response rating, Velvetleaf ([11]; 125 g ai/ha): 50
Plant response rating, Velvetleaf ([11]; 250 g ai/ha): 65
Plant response rating (scale of 0 to 100), Crabgrass, Large [12, 16]: 90
Plant response rating, Crabgrass, Large ([12]; 62 g ai/ha): 90
Plant response rating, Crabgrass, Large ([12]; 125 g ai/ha): 95
Plant response rating, Crabgrass, Large ([12]; 250 g ai/ha): 95
Plant response rating (scale of 0 to 100), Johnsongrass [13, 16]: 75
Plant response rating, Johnsongrass ([13]; 62 g ai/ha): 75
Plant response rating, Johnsongrass ([13]; 125 g ai/ha): 80
Plant response rating, Johnsongrass ([13]; 250 g ai/ha): 85
Plant response rating (scale of 0 to 100), Ragweed [14, 16]: 70
Plant response rating, Ragweed ([14]; 62 g ai/ha): 40
Plant response rating, Ragweed ([14]; 125 g ai/ha): 40
Plant response rating, Ragweed ([14]; 250 g ai/ha): 55
Plant response rating (scale of 0 to 100), Barnyardgrass [15, 16]: 75
Plant response rating, Barnyardgrass ([15]; 62 g ai/ha): 90
Plant response rating, Barnyardgrass ([15]; 125 g ai/ha): 90
Plant response rating, Barnyardgrass ([15]; 250 g ai/ha): 90
